Assays:
[1] = Solubility test of couplers in di-n-butyl phthalate / ethyl acetate, visual evaluation of crystal precipitation; format: physicochemical; parameters: key: A: no precipitation; B: slight precipitation; C: precipitation in large amount; conditions: 1 g coupler in 1 ml di-n-butyl phthalate and 4 ml ethyl acetate, dissolved at 70° C., left to stand at 20° C.
Method: Solubility tests were conducted by use of the couplers for photography of this invention and Control couplers as indicated in Table 2 below. Each one gram of respective couplers was added to a mixture of 1 ml of di-n-butyl phthalate and 4 ml of ethyl acetate and the resulting mixture was heated at 70° C. for complete dissolution, followed by sealing with a stopper. Each sample was left to stand at 20° C. and precipitation of crystals was evaluated by visual observation. In Table 2, in the evaluation column, A represents no precipitation, B slight precipitation and C precipitation in large amount.

[2] = Photographic characteristics (sensitivity, maximum density, maximum absorption) of silver halide color photographic material containing coupler; conditions: cyan dye formed
Method: The resultant solution was mixed with 5 ml of an aqueous 10% solution of Alkanol B (aklylnaphthalene sulfonate, produced by Du Pont de Nemours & Co.) and 200 ml of an aqueous 5% gelatin solution and emulsified by means of a colloid mill to prepare respective coupler dispersions. Then, each of these coupler dispersions was added to 500 g of a gelatin-silver chlorobromide emulsion, and the mixture was applied on polyethylene coated paper, followed by drying, to prepare six kinds of light-sensitive silver halide color photographic materials. These samples were subjected to wedge exposure following the conventional procedure and then processed as follows.
Processing step (30° C.)
Color developing 3 min. 30 sec.
Bleach-fixing 1 min. 30 sec.
Washing with water 2 min.
In the following, compositions of respective processing solutions are shown.
[Composition of color developing solution]
4-Amino-3-methyl-N--ethyl-N--
(β-methanesulfonamidoethyl)-aniline sulfate
Sodium hexamethaphosphate 2.5 g
Anhydrous sodium sulfite 1.85 g
Made up to one liter with addition of water, and adjusted to pH 10.30 with sodium hydroxide.
[Composition of bleach-fixing solution]
Iron ammonium salt of ethylenediaminetetraacetic
Diammonium salt of ethylenediaminetetraacetic
Ammonium thiosulfate 124.5 g
Sodium metabisulfite 13.3 g
Anhydrous sodium sulfite 2.7 g
Made up to one liter with addition of water.
For samples obtained by the above processing, photographic characteristics were measured respectively. Measurements were conducted by use of PDA-60 Model sensitometer (produced by Konishiroku Photo Industry Co.) The results are shown in Table 3 below.
The sensitivity values are shown as relative sensitivities to the value of the sample having the highest sensitivity as 100.

Row | Evaluation of solubility After 6 hours [1] | Evaluation of solubility After 12 hours [1] | Evaluation of solubility After one hour [1] | Maximum absorption [2] [nm] | SMILES
1 | C | C | B | – | CCC(Oc1ccc(C(C)(C)CC)cc1C(C)(C)CC)C(=O)Nc1cc(O)c(NC(=O)c2c(F)c(F)c(F)c(F)c2F)cc1Cl (stereo not drawn) [Control coupler (B)]
2 | C | C | B | – | CCCCCCCCC(Oc1ccc(C(C)(C)CC)cc1C(C)(C)CC)C(=O)Nc1cc(O)c(NC(=O)c2c(F)c(F)c(F)c(F)c2F)cc1Cl (stereo not drawn) [Control coupler (C)]
3 | B | C | B | – | CCCCCCCCCCCCC(Oc1ccc(C(C)(C)CC)cc1C(C)(C)CC)C(=O)Nc1cc(O)c(NC(=O)c2c(F)c(F)c(F)c(F)c2F)cc1Cl (stereo not drawn) [Control coupler (D)]
4 | – | – | – | 654 | CCC(Oc1ccc(C(C)(C)CC)cc1C(C)(C)CC)C(=O)Nc1cc(Cl)c(C)c(Cl)c1O (stereo not drawn) [Control coupler (E)]
5 | – | – | – | 641 | CCCCCCCCCCCCC(Oc1ccc(NS(=O)(=O)CCCC)cc1)C(=O)Nc1cc(O)c(NC(=O)c2ccccc2)cc1Cl (stereo not drawn) [Control coupler (F)]
6 | – | – | – | 640 | CCCCCCCCCCCCC(Oc1ccc(O)c(C(C)(C)C)c1)C(=O)Nc1ccc(NC(=O)c2ccccc2F)c(O)c1 (stereo not drawn) [Control coupler (G)]
7 | A | A | A | 655 | CCC(C)(C)c1ccc(OC(C(=O)Nc2cc(O)c(NC(=O)c3c(F)c(F)c(F)c(F)c3F)cc2Cl)C(C)C)c(C(C)(C)CC)c1 (stereo not drawn) [Exemplary compound (I-2), 2-(2,3,4,5,6-pentafluoro)benazmido-4-chloro-5-[α-(2,4-di-t-amylphenoxy)-β-methylbutaneamido]phenol]
8 | A | A | A | – | CC(C)C(Oc1ccc(C(C)(C)C)cc1C(C)(C)C)C(=O)Nc1cc(O)c(NC(=O)c2c(F)c(F)c(F)c(F)c2F)cc1Cl (stereo not drawn) [Exemplary compound (I-3)]
9 | A | A | A | – | CCC(C)C(Oc1ccc(C(C)(C)CC)cc1C(C)(C)CC)C(=O)Nc1cc(O)c(NC(=O)c2c(F)c(F)c(F)c(F)c2F)cc1Cl (stereo not drawn) [Exemplary compound (I-4)]
10 | – | – | – | 654 | CCCCCCCCCCCCCCCc1cccc(OC(C(=O)Nc2cc(O)c(NC(=O)c3c(F)c(F)c(F)c(F)c3F)cc2Cl)C(C)C)c1 (stereo not drawn) [Exemplary compound (I-10), 2-(2,3,4,5,6-pentafluoro)benzamido-4-chloro-5-[α-(m-pentadecylphenoxy)-β-methylbutaneamido]phenol]
11 | – | – | – | 657 | CCCCS(=O)(=O)Nc1ccc(OC(C(=O)Nc2cc(O)c(NC(=O)c3c(F)c(F)c(F)c(F)c3F)cc2Cl)C(C)C)cc1 (stereo not drawn) [Exemplary compound (I-11)]

Reference: patent publication US4532202A, “Coupler for photography” (Konishiroku Photo Industry Co., Ltd., priority 1982, dated 1985)
